Results published in US20160108008A1, “Substituted N-(Tetrazol-5-yl)- and N-(Triazol-5-yl)arylcarboxamide Compounds and Their Use as Herbicides” (BASF SE, priority 2013, published 2016).
Marks after values point to notes of the source that are not given here.

Experiments:
Assay type in all cases: in vivo
Amaranthus retroflexus [1] = test: greenhouse post-emergence treatment, AMARE; conditions: scale 0-100
Description: (§1) The culture containers used were plastic flowerpots containing loamy sand with approximately 3.0% of humus as the substrate. The seeds of the test plants were sown separately for each species.
(§2) For the post-emergence treatment, the test plants were first grown to a height of 3 to 15 cm, depending on the plant habit, and only then treated with the active ingredients which had been suspended or emulsified in water. For this purpose, the test plants were either sown directly and grown in the same containers, or they were first grown separately as seedlings and transplanted into the test containers a few days prior to treatment.
(§3) Depending on the species, the plants were kept at 10-25° C. or 20-35° C. The test period extended over 2 to 4 weeks. During this time, the plants were tended, and their response to the individual treatments was evaluated.
(§4) Evaluation was carried out using a scale from 0 to 100. 100 means no emergence of the plants, or complete destruction of at least the aerial moieties, and 0 means no damage, or normal course of growth. A good herbicidal activity is given at values of at least 70 and a very good herbicidal activity is given at values of at least 85.
(§5) The plants used in the greenhouse experiments belonged to the following species:
(§6) Following representative compounds of formula I according to Table 9 were used in post-emergence treatments in greenhouse experiments (values labeled with * result from pre-emergence experiments): […]

Chenopodium album = test: greenhouse post-emergence treatment, CHEAL; conditions: scale 0-100
Description: as §1, §2, §3, §4, §5, §6

Amaranthus retroflexus [2] = test: greenhouse pre-emergence treatment, AMARE; conditions: pre-emergence (value labeled *), scale 0-100
Description: as §1
(§7) For the pre-emergence treatment, the active ingredients, which had been suspended or emulsified in water, were applied directly after sowing by means of finely distributing nozzles. The containers were irrigated gently to promote germination and growth and subsequently covered with transparent plastic hoods until the plants had rooted. This cover caused uniform germination of the test plants, unless this has been impaired by the active ingredients.
as §3, §4, §5, §6

Echinochloa crus-galli = test: greenhouse post-emergence treatment, ECHCG; conditions: scale 0-100
Description: as §1, §2, §3, §4, §5, §6

Abutilon theophrasti = test: greenhouse pre-emergence treatment, ABUTH; conditions: pre-emergence (value labeled *), scale 0-100
Description: as §1, §7, §3, §4, §5, §6

SMILES | [%] damage to weed III (AMARE) (Amaranthus retroflexus [1]; 250 g/ha) | [%] damage to weed VI (CHEAL) (Chenopodium album; 250 g/ha) | [%] damage to weed VII (ECHCG) (Echinochloa crus-galli; 250 g/ha) | [%] damage to weed III (AMARE) (Amaranthus retroflexus [2]; 250 g/ha) | other results
CCCS(=O)(=O)c1c(Cl)cc(F)c(C(=O)Nc2ncnn2C)c1Cl [compound 26] | – | – | – | – | [%] damage to weed III (AMARE) (Amaranthus retroflexus [1]; 500 g/ha): 100; %; [%] damage to weed VI (CHEAL) (Chenopodium album; 500 g/ha): 100%; [%] damage to weed III (AMARE) (Amaranthus retroflexus [2]; 500 g/ha): 98* %; [%] damage to weed VII (ECHCG) (Echinochloa crus-galli; 500 g/ha): 98%
CC[S+]([O-])c1c(Cl)cc(Cl)c(C(=O)Nc2nnnn2C)c1Cl (centres unmarked) [compound 60] | – | – | – | – | [%] damage to weed III (AMARE) (Amaranthus retroflexus [1]; 500 g/ha): 100; %; [%] damage to weed VI (CHEAL) (Chenopodium album; 500 g/ha): 100%; [%] damage to weed III (AMARE) (Amaranthus retroflexus [2]; 500 g/ha): 100* %; [%] damage to weed VII (ECHCG) (Echinochloa crus-galli; 500 g/ha): 98%
COCCOc1c(Cl)cc(F)c(C(=O)Nc2nnnn2C)c1Cl [compound 70] | 98% | 100% | 95% | – | [%] damage to weed I (ABUTH) (Abutilon theophrasti; 250 g/ha): 100* %
CCSc1c(Cl)cc(F)c(C(=O)Nc2nnnn2CC)c1Cl [compound 64] | – | – | – | – | [%] damage to weed III (AMARE) (Amaranthus retroflexus [1]; 500 g/ha): 100; %; [%] damage to weed VI (CHEAL) (Chenopodium album; 500 g/ha): 100%; [%] damage to weed III (AMARE) (Amaranthus retroflexus [2]; 500 g/ha): 100* %; [%] damage to weed VII (ECHCG) (Echinochloa crus-galli; 500 g/ha): 100%
CCSc1c(Cl)cc(F)c(C(=O)Nc2nnnn2CCOC)c1Cl [compound 79] | 100; % | 100% | 100% | 100* % | –
CCCS(=O)(=O)c1c(Cl)cc(F)c(C(=O)Nc2nnnn2C)c1Cl [compound 24] | 100; % | 100% | 100% | 100* % | –
COCCOc1ccc(Cl)c(C(=O)Nc2ncnn2C)c1Cl [compound 85] | 100% | 100% | 85% | – | –
CCOc1c(Cl)cc(F)c(C(=O)Nc2nnnn2CCOC)c1Cl [compound 19] | 100% | 100% | 100% | – | [%] damage to weed I (ABUTH) (Abutilon theophrasti; 250 g/ha): 100* %
COc1c(Cl)cc(F)c(C(=O)Nc2nnnn2C)c1Cl [compound 9] | – | – | – | – | [%] damage to weed III (AMARE) (Amaranthus retroflexus [1]; 196 g/ha): 100%; [%] damage to weed I (ABUTH) (Abutilon theophrasti; 196 g/ha): 100* %; [%] damage to weed VI (CHEAL) (Chenopodium album; 196 g/ha): 100%
CCS(=O)(=O)c1c(Cl)cc(Cl)c(C(=O)Nc2nnnn2C)c1Cl [compound 73] | 100; % | 100% | 100% | 98* % | –
COCCOc1c(Cl)cc(F)c(C(=O)Nc2nnnn2CCOC)c1Cl [compound 68] | 100; % | 100% | 100% | 100* % | –
Cn1nnnc1NC(=O)c1c(F)cc(Cl)c(OCCC(F)(F)F)c1Cl [compound 91, 2,4-Dichloro-6-fluoro-N-(1-methyltetrazol-5-yl)-3-(3,3,3-trifluoropropoxy)benzamide] | 100; % | 100% | 100% | 100* % | –
Cn1ncnc1NC(=O)c1c(F)cc(Cl)c([S+](C)[O-])c1Cl (centres unmarked) [cpd. 5] | 100% | 100% | 98% | – | –
CC[S+]([O-])c1c(Cl)cc(F)c(C(=O)Nc2nnnn2CCOC)c1Cl (centres unmarked) [compound 77] | – | – | – | – | [%] damage to weed III (AMARE) (Amaranthus retroflexus [1]; 125 g/ha): 100; %; [%] damage to weed VI (CHEAL) (Chenopodium album; 125 g/ha): 100%; [%] damage to weed III (AMARE) (Amaranthus retroflexus [2]; 125 g/ha): 100* %; [%] damage to weed VII (ECHCG) (Echinochloa crus-galli; 125 g/ha): 100%
CCC[S+]([O-])c1c(Cl)cc(F)c(C(=O)Nc2nnnn2C)c1Cl (centres unmarked) [compound 23] | 100; % | 100% | 98% | 98* % | –
CCSc1c(F)cc(Cl)c(C(=O)Nc2nnnn2C)c1F [compound 97] | 100; % | 100% | 100% | 100* % | –
COCCn1nnnc1NC(=O)c1c(Cl)cc(F)c(SC)c1F [compound 99] | 100; % | 100% | 100% | 100* % | –
CCSc1ccc(Cl)c(C(=O)Nc2nnnn2C)c1Cl [compound 88] | – | 100% | 100% | – | –
COCCn1nnnc1NC(=O)c1c(Cl)cc(Cl)c(SC)c1Cl [compound 75] | 100; % | 100% | 100% | 100* % | –
Cn1ncnc1NC(=O)c1c(F)cc(Cl)c(OCCC(F)(F)F)c1Cl [compound 90, 2,4-Dichloro-6-fluoro-N-(2-methyl-1,2,4-triazol-3-yl)-3-(3,3,3-trifluoropropoxy)benzamide] | – | 100% | 90% | – | –
CCSc1ccc(Cl)c(C(=O)Nc2ncnn2C)c1Cl [compound 87] | 100; % | 100% | 98% | 98* % | –
CCn1nnnc1NC(=O)c1c(F)cc(Cl)c(OCCC(F)(F)F)c1Cl [compound 92, 2,4-Dichloro-N-(1-ethyltetrazol-5-yl)-6-fluoro-3-(3,3,3-trifluoropropoxy)benzamide] | 100; % | 100% | 100% | 100* % | –
CSc1ccc(Cl)c(C(=O)Nc2nnnn2C)c1Cl [compound 82] | 100; % | 100% | 98% | 100* % | –
CSc1c(F)cc(Cl)c(C(=O)Nc2nnnn2C)c1F [compound 95] | 100; % | 100% | 100% | 95* % | –
CCCSc1c(Cl)cc(F)c(C(=O)Nc2ncnn2C)c1Cl [compound 22] | 100: % | 100% | 100% | 80* % | –
CCC[S+]([O-])c1c(Cl)cc(F)c(C(=O)Nc2ncnn2C)c1Cl (centres unmarked) [compound 27] | – | – | – | – | [%] damage to weed III (AMARE) (Amaranthus retroflexus [1]; 244 g/ha): 100; %; [%] damage to weed VI (CHEAL) (Chenopodium album; 244 g/ha): 100%; [%] damage to weed III (AMARE) (Amaranthus retroflexus [2]; 244 g/ha): 85* %; [%] damage to weed VII (ECHCG) (Echinochloa crus-galli; 244 g/ha): 98%
COCCn1nnnc1NC(=O)c1c(F)cc(Cl)c(OCCC(F)(F)F)c1Cl [compound 89, 2,4-Dichloro-6-fluoro-N-[1-(2-methoxyethyl)tetrazol-5-yl]-3-(3,3,3-trifluoropropoxy)-benzamide] | 100; % | 100% | 100% | 100* % | –
CCn1nnnc1NC(=O)c1c(F)cc(Cl)c([S+](C)[O-])c1Cl (centres unmarked) [compound 32] | 100; % | 100% | 100% | 100* % | –
CCSc1c(Cl)cc(Cl)c(C(=O)Nc2nnnn2C)c1Cl [compound 41] | 100; % | 100% | 100% | 100* % | –
COCCn1nnnc1NC(=O)c1c(Cl)ccc(SC)c1Cl [compound 83] | 100; % | 100% | 100% | 100* % | –
